Calls of active or inactive are those of the source. The rule behind the calls is not given here.
Tested on: GENE-TOX genotoxicity assays, various organisms and cells
Assay: GENE-TOX mutagenicity studies
Conditions: for call: Assay Type: In vivo carcinogenicity studies
[1] = Species/Cell Type: Neurospora crassa, Assay Type: Aneuploidy, chromosome aberrations, Assay Code: NEN-, Evaluation Type: Evaluation A (Pre-1980)
[2] = Species/Cell Type: Nonhuman, Assay Code: CCGT, Evaluation Type: Evaluation A (Pre-1980)
[3] = Species/Cell Type: Nonhuman, Assay Code: CCG+, Evaluation Type: Evaluation A (Pre-1980)
[4] = Species/Cell Type: Nonhuman, Assay Type: Sister-chromatid exchange (SCE) in vitro, Assay Code: SC2+D, Dose Response: With dose response, Evaluation Type: Evaluation B (Post-1980)
[5] = Species/Cell Type: Salmonella typhimurium (one or more of the five standard strains: TA98, TA100, TA1535, TA1537, and TA1538), Assay Type: Histidine reverse gene mutation, Ames assay, Assay Code: SAL+*, Activation: With metabolic activation, Evaluation Type: Evaluation A (Pre-1980)
[6] = Species/Cell Type: Bacillus subtilis (H17 vs M45T), Assay Type: Rec-assay, spot test, DNA effects (bacterial DNA repair), Assay Code: REX+, Evaluation Type: Evaluation A (Pre-1980)
[7] = Species/Cell Type: Drosophila melanogaster, Assay Type: Sex-linked recessive lethal gene mutation, Assay Code: SRL+, Evaluation Type: Evaluation A (Pre-1980)
[8] = Species/Cell Type: Bacillus subtilis (H17 vs M45T), Assay Type: Rec-assay, spot test, DNA effects (bacterial DNA repair), Assay Code: REXT, Evaluation Type: Evaluation A (Pre-1980)
[9] = Species/Cell Type: Salmonella typhimurium (one or more of the five standard strains: TA98, TA100, TA1535, TA1537, and TA1538), Assay Type: Histidine reverse gene mutation, Ames assay, Assay Code: SAL+, Evaluation Type: Evaluation A (Pre-1980)
[10] = Species/Cell Type: Bacillus subtilis (H17 vs M45), Assay Type: Rec-assay, spot test, DNA effects (bacterial DNA repair), Assay Code: REW-, Evaluation Type: Evaluation A (Pre-1980)
[11] = Species/Cell Type: Salmonella typhimurium (one or more of the five standard strains: TA98, TA100, TA1535, TA1537, and TA1538), Assay Type: Histidine reverse gene mutation, Ames assay, Assay Code: SAL-, Evaluation Type: Evaluation A (Pre-1980)
[12] = Species/Cell Type: Chinese hamster lung (V79) cells, Assay Type: Forward gene mutation at the HPRT or ouabain locus, Assay Code: V79+, Evaluation Type: Evaluation A (Pre-1980)
[13] = Species/Cell Type: Allium cepa, Assay Type: Chromosome aberrations, Assay Code: ALC+D, Dose Response: With dose response, Evaluation Type: Evaluation A (Pre-1980)
[14] = Species/Cell Type: Nonhuman, Assay Code: CCG-, Evaluation Type: Evaluation A (Pre-1980)

SMILES: Oc1ccc(Cl)c(O)c1
- mutagenic call (Species/Cell Type: Mammalian polychromatic erythrocytes, Assay Type: Micronucleus test, chromosome aberrations, Assay Code: MNTT, Evaluation Type: Evaluation A (Pre-1980)): no conclusion
- mutagenic call [1]: inactive; negative

SMILES: CC=Cc1ccccc1O
- mutagenic call (Species/Cell Type: Human lymphocytes, Assay Type: Sister-chromatid exchange (SCE) in vitro, Assay Code: SCL+D, Dose Response: With dose response, Evaluation Type: Evaluation B (Post-1980)): active; positive
- mutagenic call (Species/Cell Type: Human, Assay Type: Sister-chromatid exchange (SCE) in vitro, Assay Code: SC1+D, Dose Response: With dose response, Evaluation Type: Evaluation B (Post-1980)): active; positive

SMILES: O=C1C=Cc2ccc3c4c(ccc1c24)-c1ccccc1C3=O
- mutagenic call (Species/Cell Type: Chinese hamster lung (V79) cells, Assay Type: Forward gene mutation at the HPRT or ouabain locus, Assay Code: V79-, Evaluation Type: Evaluation A (Pre-1980)): inactive; negative
- call [2]: no conclusion
- mutagenic call (Species/Cell Type: Salmonella typhimurium (one or more of the five standard strains: TA98, TA100, TA1535, TA1537, and TA1538), Assay Type: Histidine reverse gene mutation, Ames assay, Assay Code: SALT, Evaluation Type: Evaluation A (Pre-1980)): no conclusion

SMILES: C=CC#N
- mutagenic call (Species/Cell Type: Drosophila melanogaster, Assay Type: Sex-linked recessive lethal gene mutation, Assay Code: SRLT, Evaluation Type: Evaluation A (Pre-1980)): no conclusion
- mutagenic call (Species/Cell Type: Escherichia coli WP2, Assay Type: Tryptophan reverse gene mutation, Assay Code: WP2+D, Dose Response: With dose response, Evaluation Type: Evaluation A (Pre-1980)): active; positive
- mutagenic call (Species/Cell Type: Escherichia coli WP2 UVRA, Assay Type: Tryptophan reverse gene mutation, Assay Code: WPU+, Evaluation Type: Evaluation A (Pre-1980)): active; positive
- mutagenic call (Species/Cell Type: Mammalian polychromatic erythrocytes, Assay Type: Micronucleus test, chromosome aberrations, Assay Code: MNT-, Evaluation Type: Evaluation B (Post-1980)): inactive; negative
- call [3]: active; positive
- mutagenic call [4]: active; positive
- mutagenic call (Species/Cell Type: Nonhuman, Assay Type: Sister-chromatid exchange (SCE) in vivo, Assay Code: SC3+D, Dose Response: With dose response, Evaluation Type: Evaluation B (Post-1980)): active; positive
- mutagenic call [5]: active; positive
- mutagenic call (Species/Cell Type: Syrian hamster embryo (SA7/SHE) cells, Assay Type: Cell transformation, viral enhanced, Assay Code: CT7+, Evaluation Type: Evaluation A (Pre-1980)): active; positive
- mutagenic call (Species/Cell Type: Syrian hamster embryo (SHE) cells, Assay Type: Cell transformation, focus assay, Assay Code: CTF+, Evaluation Type: Evaluation A (Pre-1980)): active; positive

SMILES: COc1ccc2c(c1)CCC(c1ccccc1)=C2c1ccc(OCCN2CCCC2)cc1
- mutagenic call (Species/Cell Type: Rabbit, Sex: Male, Assay Type: Sperm morphology, Assay Code: SPR+, Evaluation Type: Evaluation A (Pre-1980)): active; positive

SMILES: O=S(=O)(O)c1ccc(O)c2ncccc12
- mutagenic call [5]: active; positive

SMILES: CCn1cc(C(=O)O)c(=O)c2ccc(C)nc21
- mutagenic call [6]: active; positive
- mutagenic call [7]: active; positive
- mutagenic call (Species/Cell Type: Escherichia coli polA (W3119 vs P3478), Assay Type: Rec-assay, DNA effects (bacterial DNA repair), Assay Code: RE1+, Evaluation Type: Evaluation A (Pre-1980)): active; positive
- mutagenic call (Species/Cell Type: Human lymphocytes, Assay Type: Sister-chromatid exchange (SCE) in vivo, Assay Code: SCY+, Evaluation Type: Evaluation B (Post-1980)): active; positive

SMILES: C=CCN=C=S
- mutagenic call [7]: active; positive
- mutagenic call (Species/Cell Type: Drosophila melanogaster, Assay Type: Sex-linked recessive lethal gene mutation, Assay Code: SRL-, Evaluation Type: Evaluation A (Pre-1980)): inactive; negative

SMILES: Oc1c(I)cc(Cl)c2cccnc12
- mutagenic call [1]: inactive; negative

SMILES: Cc1ccccc1N=Nc1c(O)ccc2ccccc12
- mutagenic call [8]: no conclusion
- call [3]: active; positive

SMILES: Nc1ccc2c(c1)Cc1cc(N)ccc1-2
- mutagenic call [9]: active; positive

SMILES: CC(=O)Nc1ccc(N=NN(C)C)cc1
- mutagenic call [7]: active; positive
- mutagenic call (Species/Cell Type: Saccharomyces cerevisiae, Assay Type: Mitotic recombination or gene conversion, Assay Code: YEH+/-*, Activation: With metabolic activation, Evaluation Type: Evaluation A (Pre-1980)): inactive; positive without activation, negative with activation

SMILES: CN[C@H]1Cc2c[nH]c3c(Cl)ccc(c23)[C@]12C=C(C)C(=O)O2
- mutagenic call [10]: inactive; negative

SMILES: CN(C)C(c1ccccc1)(c1ccccc1)N(C)C
- mutagenic call [11]: inactive; negative

SMILES: CC(C)Oc1ccccc1OC(=O)N(C)N=O
- mutagenic call [6]: active; positive
- mutagenic call (Species/Cell Type: Escherichia coli WP2, Assay Type: Tryptophan reverse gene mutation, Assay Code: WP2+, Evaluation Type: Evaluation A (Pre-1980)): active; positive
- mutagenic call (Species/Cell Type: Saccharomyces cerevisiae, Assay Type: Mitotic recombination or gene conversion, Assay Code: YEC+, Evaluation Type: Evaluation A (Pre-1980)): active; positive
- mutagenic call [9]: active; positive

SMILES: OC1C2OC2=C2C=c3ccc4cccc5ccc(c3c54)C2C1O (stereo not drawn)
- mutagenic call [12]: active; positive

SMILES: CC1=CCc2c1c(C)c(C)c1c2ccc2ccccc21
- mutagenic call [5]: active; positive

SMILES: Nc1cc(N)c(N=Nc2ccc(S(=O)(=O)O)cc2)cc1N=Nc1ccc(S(=O)(=O)O)cc1 (tested in a mixture with another compound)
- mutagenic call [9]: active; positive

SMILES: Nc1cccc2c1-c1ccccc1C2
- mutagenic call (Species/Cell Type: Fischer rat embryo (RLV/1706) cells, Assay Type: Cell transformation, viral enhanced, Assay Code: CTR-, Evaluation Type: Evaluation A (Pre-1980)): inactive; negative
- mutagenic call (Species/Cell Type: Mouse embryo (AKR/ME) cells, Assay Type: Cell transformation, Assay Code: CTK-, Evaluation Type: Evaluation A (Pre-1980)): inactive; negative

SMILES: CCSc1nc2c(c(=O)n(C)c(=O)n2C)n1C
- mutagenic call [13]: active; positive

SMILES: CCCOc1nc2c(c(=O)n(C)c(=O)n2C)n1C
- mutagenic call [13]: active; positive

SMILES: CC(=O)Nc1nc(-c2cc([N+](=O)[O-])cs2)cs1
- mutagenic call [9]: active; positive

SMILES: Cc1c2c(c(C)c3c1ccc1ccccc13)C=C[C@@H](O)[C@@H]2O
- mutagenic call [12]: active; positive
- mutagenic call (Species/Cell Type: Mouse prostate cells, Assay Type: Cell transformation, Assay Code: CTM+D, Dose Response: With dose response, Evaluation Type: Evaluation A (Pre-1980)): active; positive
- call [2]: no conclusion

SMILES: O=C(Nc1cccc(Cl)c1)OCC#CCCl
- mutagenic call (Species/Cell Type: Bacillus subtilis (H17 vs M45), Assay Type: Rec-assay, spot test, DNA effects (bacterial DNA repair), Assay Code: REW+, Evaluation Type: Evaluation A (Pre-1980)): active; positive

SMILES: O=Nc1ccc(NNc2ccccc2)cc1
- mutagenic call [9]: active; positive

SMILES: CCCCCCCCCCCCN(C)N=O
- mutagenic call [5]: active; positive

SMILES: [O]=[Sn]([OH])[OH]
- mutagenic call [10]: inactive; negative

SMILES: NC(=O)c1ccccc1C(N)=O
- call [14]: inactive; negative

SMILES: C=CCOc1nc2c(c(=O)n(C)c(=O)n2C)n1C
- mutagenic call [13]: active; positive

SMILES: CCCN(CCC)C(=O)SCC (tested in a mixture with another compound)
- mutagenic call (Species/Cell Type: Zea mays (corn), Assay Type: Gene mutation, Assay Code: ZEM-, Evaluation Type: Evaluation A (Pre-1980)): inactive; negative

SMILES: Clc1nc(Cl)nc(Nc2ccccc2Cl)n1
- mutagenic call (Species/Cell Type: Fischer rat embryo (RLV/1706) cells, Assay Type: Cell transformation, viral enhanced, Assay Code: CTR+, Evaluation Type: Evaluation A (Pre-1980)): active; positive
- call [14]: inactive; negative

SMILES: Cc1ccc2cc3c(ccc4ccccc43)c3c2c1CC3=O
- mutagenic call [12]: active; positive
- call [2]: no conclusion
- mutagenic call [5]: active; positive

SMILES: Cc1[nH]cnc1CSCCN(N=O)C(=NC#N)N(C)N=O
- mutagenic call [4]: active; positive

SMILES: N#CCC(=O)N/N=C/c1c[n+]([O-])c2ccccc2[n+]1[O-]
- mutagenic call (Species/Cell Type: Mammalian polychromatic erythrocytes, Assay Type: Micronucleus test, chromosome aberrations, Assay Code: MNT+, Evaluation Type: Evaluation B (Post-1980)): active; positive

SMILES: NC[C@H]1O[C@H](O[C@H]2[C@H](O)[C@@H](O[C@H]3O[C@H](CO)[C@@H](O)[C@H](N)[C@H]3O)[C@H](N)C[C@@H]2N)[C@H](O)[C@@H](O)[C@@H]1O
- mutagenic call [8]: no conclusion
- mutagenic call (Species/Cell Type: Escherichia coli polA (W3119 vs P3478), Assay Type: Rec-assay, DNA effects (bacterial DNA repair), Assay Code: RE1-, Evaluation Type: Evaluation A (Pre-1980)): inactive; negative
- mutagenic call (Species/Cell Type: Saccharomyces cerevisiae, Assay Type: Mitotic recombination or gene conversion, Assay Code: YEH-, Evaluation Type: Evaluation A (Pre-1980)): inactive; negative

SMILES: c1ccc2c(c1)Oc1ccccc1O2
- call (Species/Cell Type: Nonhuman, Assay Code: CCG-L, Evaluation Type: Evaluation A (Pre-1980)): inactive; negative

SMILES: O=C(O)c1ccccc1O
- mutagenic call (Species/Cell Type: Saccharomyces cerevisiae, Assay Type: Reverse gene mutation, Assay Code: YER+, Evaluation Type: Evaluation A (Pre-1980)): active; positive
- mutagenic call [11]: inactive; negative

Reference: PubChem BioAssay AID1259408 (Genetic Toxicology Data Bank (GENE-TOX), 2018)
